Data reported in ChEMBL document CHEMBL4813945, “Discovery and development of novel pyrimidine and pyrazolo/thieno-fused pyrimidine derivatives as potent and orally active inducible nitric oxide synthase dimerization inhibitor with efficacy for arthritis” (Eur J Med Chem, 2021).
Active and inactive are the calls of the source. The calls are words filed in the database; no cut-off is given here.

How the values were obtained:
[1] = Tmax in Sprague-Dawley rat at 10 mg/kg, po measured after 0.25 to 24 hrs by LC-MS/MS analysis; type: ADME, organism-based; details: in vivo, time 0.25-24 hrs
RAW264.7 [2] = experiment: Inhibition of LPS-induced iNOS protein expression in mouse RAW264.7 cells at 0.5 to 2 uM preincubated for 1 hrs followed by LPS-stimulation and measured after 24 hrs by Western blot analysis; type: functional, cell-based; details: dose 0.5-2 µM, time 25.0 hrs
CYP3A4/5 = CYP3A4/5 (Homo sapiens, UniProt P08684+P20815); experiment: Inhibition of CYP3A4/5 in human liver microsomes using Midazolam as substrate measured after 20 mins by LC-MS/MS analysis; type: ADME; details: probe Midazolam
RAW264.7 [3] = experiment: Cytotoxicity against mouse RAW 264.7 cells assessed as cell viability by MTT assay; type: cell-based
[4] = Metabolic stability in rat hepatocytes assessed as half life measured upto 120 mins by LC-MS/MS analysis; type: ADME, cell-based, Hepatocyte
[5] = molecular target: T1, Nitric oxide synthase, inducible (Mus musculus) (UniProt P29477); experiment: Inhibition of iNOS dimer formation in LPS-induced mouse RAW264.7 cells at 0.5 to 2 uM preincubated for 1 hrs followed by LPS-stimulation and measured after 24 hrs by Westernblot analysis; details: dose 0.5-2 µM, time 25.0 hrs
T1 sequence (whole entry): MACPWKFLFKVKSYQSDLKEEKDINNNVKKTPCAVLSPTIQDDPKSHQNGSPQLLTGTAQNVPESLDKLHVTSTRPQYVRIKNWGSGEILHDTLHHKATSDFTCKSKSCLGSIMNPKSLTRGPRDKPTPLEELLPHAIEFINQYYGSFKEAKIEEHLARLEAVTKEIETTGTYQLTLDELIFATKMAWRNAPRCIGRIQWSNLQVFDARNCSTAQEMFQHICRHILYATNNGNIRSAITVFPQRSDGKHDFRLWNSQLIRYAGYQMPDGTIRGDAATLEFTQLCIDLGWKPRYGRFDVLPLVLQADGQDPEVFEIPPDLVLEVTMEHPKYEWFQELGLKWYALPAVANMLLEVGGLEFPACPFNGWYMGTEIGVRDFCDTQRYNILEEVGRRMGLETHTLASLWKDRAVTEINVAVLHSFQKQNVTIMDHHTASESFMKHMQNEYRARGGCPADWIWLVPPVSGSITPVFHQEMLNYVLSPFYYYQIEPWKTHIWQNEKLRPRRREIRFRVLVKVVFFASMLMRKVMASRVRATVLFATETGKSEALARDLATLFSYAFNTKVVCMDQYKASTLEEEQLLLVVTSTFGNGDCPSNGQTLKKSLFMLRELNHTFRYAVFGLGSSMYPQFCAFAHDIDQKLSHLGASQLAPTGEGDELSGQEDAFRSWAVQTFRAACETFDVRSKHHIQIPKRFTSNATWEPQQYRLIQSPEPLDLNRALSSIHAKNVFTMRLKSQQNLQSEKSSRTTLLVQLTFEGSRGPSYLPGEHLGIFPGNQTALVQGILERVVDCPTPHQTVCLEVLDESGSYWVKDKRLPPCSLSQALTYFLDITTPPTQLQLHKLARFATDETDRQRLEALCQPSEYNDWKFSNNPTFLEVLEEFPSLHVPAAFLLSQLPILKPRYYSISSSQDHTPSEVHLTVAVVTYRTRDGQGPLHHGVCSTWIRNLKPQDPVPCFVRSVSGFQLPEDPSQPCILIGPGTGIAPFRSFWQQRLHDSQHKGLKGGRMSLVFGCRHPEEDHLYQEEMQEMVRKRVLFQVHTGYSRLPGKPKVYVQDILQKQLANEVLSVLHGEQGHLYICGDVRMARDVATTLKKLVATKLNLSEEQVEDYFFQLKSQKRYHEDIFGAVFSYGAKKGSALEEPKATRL

Rattus norvegicus [6] = experiment: Antiinflammatory activity in complete freund's adjuvant-induced male Sprague-Dawley rat model of arthritis assessed as reduction in ankle joint swelling at 40 to 80 mg/kg, IG administered once daily for 2 to 4 weeks; type: functional, organism-based; details: dose 40-80 mg/kg, time 2-4 weeks
[7] = Half life in Sprague-Dawley rat at 10 mg/kg, po measured after 0.25 to 24 hrs by LC-MS/MS analysis; type: ADME, organism-based; details: in vivo, time 0.25-24 hrs
[8] = Subacute toxicity in rat assessed as fur wrinkles at 100 to 500 mg/kg, IG administered every other day for 14 days and measured every 2 days; type: organism-based; details: in vivo, po, 336 h, dose 100-500 mg/kg, time 14 day
[9] = Acute toxicity in rat assessed as drowsiness at 2000 mg/kg, IG administered as single dose; type: organism-based; details: in vivo, po
Rattus norvegicus [10] = experiment: Antiinflammatory activity in complete freund's adjuvant-induced IG dosed male Sprague-Dawley rat model of arthritis assessed as decrease in IL-6 level in serum after 4 weeks by ELISA; type: functional, organism-based; details: dose 40-80 mg/kg
Cytochrome P450 2C9 = Cytochrome P450 2C9 (Homo sapiens, UniProt P11712); experiment: Inhibition of CYP2C9 in human liver microsomes using Diclofenac as substrate measured after 20 mins by LC-MS/MS analysis; type: ADME
Chain of Cytochrome P450 2C9 (P11712 whole entry): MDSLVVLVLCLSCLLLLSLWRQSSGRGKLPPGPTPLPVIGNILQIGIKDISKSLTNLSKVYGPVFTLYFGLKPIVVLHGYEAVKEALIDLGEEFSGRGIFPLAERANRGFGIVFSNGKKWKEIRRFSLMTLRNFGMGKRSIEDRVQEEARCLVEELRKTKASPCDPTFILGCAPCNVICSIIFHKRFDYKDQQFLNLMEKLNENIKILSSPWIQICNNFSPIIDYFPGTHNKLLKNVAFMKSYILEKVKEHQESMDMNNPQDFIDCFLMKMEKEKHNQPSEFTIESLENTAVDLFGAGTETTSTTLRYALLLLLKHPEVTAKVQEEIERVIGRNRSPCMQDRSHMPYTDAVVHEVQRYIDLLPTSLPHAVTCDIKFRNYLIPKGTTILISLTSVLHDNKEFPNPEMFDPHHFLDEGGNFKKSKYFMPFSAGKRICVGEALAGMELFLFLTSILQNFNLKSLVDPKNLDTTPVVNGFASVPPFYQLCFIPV

Cytochrome P450 2C19 = Cytochrome P450 2C19 (Homo sapiens, UniProt P33261); experiment: Inhibition of CYP2C19 in human liver microsomes using Mephenytoin as substrate measured after 20 mins by LC-MS/MS analysis; type: ADME
Chain of Cytochrome P450 2C19 (P33261 whole entry): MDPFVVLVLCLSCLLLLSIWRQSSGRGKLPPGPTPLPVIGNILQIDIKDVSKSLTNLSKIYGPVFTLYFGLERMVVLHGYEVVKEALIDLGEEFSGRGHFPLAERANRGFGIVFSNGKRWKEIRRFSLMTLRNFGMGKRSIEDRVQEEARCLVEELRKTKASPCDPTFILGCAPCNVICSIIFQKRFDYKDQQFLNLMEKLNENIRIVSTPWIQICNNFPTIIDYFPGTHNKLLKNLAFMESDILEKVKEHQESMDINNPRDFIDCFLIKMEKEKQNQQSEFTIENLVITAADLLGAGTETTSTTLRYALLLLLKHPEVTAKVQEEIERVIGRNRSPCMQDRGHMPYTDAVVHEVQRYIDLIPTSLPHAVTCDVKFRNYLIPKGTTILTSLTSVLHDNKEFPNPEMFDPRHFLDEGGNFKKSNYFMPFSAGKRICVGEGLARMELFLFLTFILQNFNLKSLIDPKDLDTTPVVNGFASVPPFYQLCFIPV

[11] = Metabolic stability in human hepatocytes assessed as clearance incubated up to 120 mins measured per million cells by LC-MS/MS analysis; type: ADME, cell-based, Hepatocyte; details: read-out: CLH
[12] = Subacute toxicity in rat assessed as liver damage at 100 to 500 mg/kg, IG administered every other day for 14 days and measured every 2 days by H and E staining; type: organism-based; details: in vivo, po, 336 h, dose 100-500 mg/kg, time 14 day
Rattus norvegicus [13] = experiment: Antiinflammatory activity in complete freund's adjuvant-induced male Sprague-Dawley rat model of arthritis assessed as reduction in synovial hyperplasia at 80 mg/kg, IG after 4 weeks by H and E staining based histopathological analysis; type: functional, organism-based
L02 = experiment: Cytotoxicity against human L02 cells assessed as cell viability by MTT assay; type: cell-based
[14] = AUC (0 to infinity) in Sprague-Dawley rat at 10 mg/kg, po measured by LC-MS analysis; type: ADME, organism-based; design: time infinity, route oral, dose 10 mg/kg; details: in vivo
[15] = Metabolic stability in human hepatocytes assessed as parent compound remaining after 120 mins by LC-MS/MS analysis; type: ADME, cell-based, Hepatocyte; details: read-out: Stabilty
[16] = Acute toxicity in rat assessed as weight loss at 2000 mg/kg, IG administered as single dose; type: organism-based; details: in vivo, po
RAW264.7 [17] = experiment: Antiinflammatory activity against mouse RAW264.7 cells assessed as inhibition of LPS-induced NO production at 10 uM preincubated for 1 hrs followed by LPS stimulation and measured after 24 hrs by Griess assay relative to control; type: functional; details: time 25 hrs
[18] = Acute toxicity in rat assessed as fur wrinkles at 2000 mg/kg, IG administered as single dose; type: organism-based; details: in vivo, po
[19] = Cmax in Sprague-Dawley rat at 10 mg/kg, po measured after 0.25 to 24 hrs by LC-MS/MS analysis; type: ADME, organism-based; design: route oral, time lower 0.25 hrs, dose 10 mg/kg, time upper 24 hrs; details: in vivo
[20] = Subacute toxicity in rat assessed as anorexia at 100 to 500 mg/kg, IG administered every other day for 14 days and measured every 2 days; type: organism-based; details: in vivo, po, 336 h, dose 100-500 mg/kg, time 14 day

## COc1cc(/C=C/c2nc(NCc3ccc(C)cc3)c3sccc3n2)cc(OC)c1OC
[1]
  Tmax: 3.33 h
RAW264.7 [2]
  inhibition: inactive
CYP3A4/5
  IC50 at 20 min: > 50 µM
RAW264.7 [3]
  IC50: > 50 µM
[4]
  half-life: 0.925 h
[5]
  inhibition: Active
Rattus norvegicus [6]
  Activity: Active
[7]
  half-life: 4.91 h
[8]
  Activity: Non-Toxic
[9]
  Activity: Non-Toxic
Rattus norvegicus [10]
  Activity: Dose-Dependent Effect
Cytochrome P450 2C9
  IC50: 8.91 µM
Cytochrome P450 2C19
  IC50: 7.76 µM
[11]
  hepatocyte CLint: 2.1 µL/min/1e6 cells
[12]
  Activity: Non-Toxic
Rattus norvegicus [13]
  Activity: Active
L02
  IC50: 2930 µM
[14]
  AUC: 1152 ng·h/mL
[15]
  remaining at 2 h: 77.5%
[16]
  Activity: Non-Toxic
RAW264.7 [17]
  inhibition at 10 µM: 98.3%
[18]
  Activity: Non-Toxic
[19]
  Cmax: 131 ng/mL
[20]
  Activity: Non-Toxic
